Patent EP0973746B1, “SUBSTITUTED 3-CYANO QUINOLINES” (Wyeth Holdings Corporation, priority 1997, dated 1998)
≈ marks a conversion by molar mass, not a printed value. Where two headings read alike, the source gives them in different places.

Columns and labels:
T47D = experiment: Inhibition of cancer cell growth as measured by cell number, T47D; format: cell-based; settings: Homo sapiens
COLO205 = experiment: Inhibition of cancer cell growth as measured by cell number, COLO205; format: cell-based; settings: Homo sapiens, read-out: IC50 COLO205
A549 = experiment: Inhibition of cancer cell growth as measured by cell number, A549; format: cell-based; settings: Homo sapiens, read-out: IC50 A549
PC3 = experiment: Inhibition of cancer cell growth as measured by cell number, PC3; format: cell-based; settings: Homo sapiens, read-out: IC50 PC3
SKBR3 = experiment: Inhibition of cancer cell growth as measured by cell number, SKBR3; format: cell-based, human; settings: Homo sapiens, Table 7;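 further: SK-BR-3 cells were selected as a line overexpressing HER2/neu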
Excerpt: (§1) The cell lines were chosen since they overexpressed epidermal growth factor receptor (EGFR) (i.e. A431) or HER2/neu (SKBR3), or had little to no expression of the these receptors (SW620, LOX, MCF7).

A27805 = experiment: Inhibition of cancer cell growth as measured by cell number, A27805; format: cell-based; settings: Homo sapiens, read-out: IC50 A27805
LOX = experiment: Inhibition of cancer cell growth as measured by cell number, LOX; format: cell-based, human; settings: Homo sapiens, LOX, 48 h, Table 6;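 further: LOX cells served as a line with low or absent EGFR and HER2/neu expression, in contrast to receptor-overexpressing lines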
Excerpt: as §1

NHEK = experiment: Inhibition of cell growth by incorporation of [3H]-thymidine, NHEK; format: cell-based, human; settings: Homo sapiens, read-out: IC50 NHEK
LX1 = experiment: Inhibition of cancer cell growth as measured by cell number, LX1; format: cell-based; settings: Homo sapiens, read-out: IC50 LX1
LNCAP = experiment: Inhibition of cancer cell growth as measured by cell number, LNCAP; format: cell-based; settings: Homo sapiens
CX1 = experiment: Inhibition of cancer cell growth as measured by cell number, CX1; format: cell-based; settings: Homo sapiens, read-out: IC50 CX1
A431 [1] = experiment: Inhibition of cancer cell growth as measured by cell number, A431; format: cell-based, human; settings: Homo sapiens, A-431, 48 h, Table 6;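 further: human A431 line, picked because it overexpresses epidermal growth factor receptor (EGFR)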
Excerpt: as §1

A2780DDP = experiment: Inhibition of cancer cell growth as measured by cell number, A2780DDP; format: cell-based; settings: Homo sapiens, read-out: IC50 A2780DDP
[2] = biological target: recombinant human MEK 1 (MAPKK) and recombinant human ERK2 (MAPK); experiment: Mitogen Activated Protein Kinase (MAPK) assay, two component coupled MEK 1 / ERK2; format: biochemical; settings: separate entries for the same compound = evaluated more than one time;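 further: MEK 1-activated ERK2 phosphorylates MBP or Myc peptide with 33P-ATP, filter capture and scintillation counting, inhibitor preincubated with ERK2 30 min at 0 °C, inhibition relative to uninhibited control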
SW948 = experiment: Inhibition of cancer cell growth as measured by cell number, SW948; format: cell-based; settings: Homo sapiens, read-out: IC50 SW948
CACO2 = experiment: Inhibition of cancer cell growth as measured by cell number, CACO2; format: cell-based; settings: Homo sapiens, read-out: IC50 CACO2
CCL228 = experiment: Inhibition of cancer cell growth as measured by cell number, CCL228; format: cell-based; settings: Homo sapiens, read-out: IC50 CCL228
A431 [3] = experiment: Inhibition of cell growth by incorporation of [3H]-thymidine, A431; format: cell-based, human; settings: Homo sapiens
HL60 = experiment: Inhibition of cancer cell growth as measured by cell number, HL60; format: cell-based; settings: Homo sapiens, read-out: IC50 HL60
DU145 = experiment: Inhibition of cancer cell growth as measured by cell number, DU145; format: cell-based; settings: Homo sapiens, read-out: IC50 DU145
[4] = biological target: epidermal growth factor receptor kinase (Homo sapiens, UniProt P00533); experiment: biochemical
Description: The enzyme was obtained as a membrane extract of A431 cells (American Type Culture Collection, Rockville, MD). A431 cells were grown in T175 flasks to 80% confluency. The cells were washed twice with phosphate buffered saline (PBS) without Ca^2+. Flasks were rotated for 1.5 hours in 20 ml PBS with 1.0 mM ethylenediaminetetraacetic acid (EDTA) at room temperature and centrifuged at 600g for 10 minutes. The cells were solubilized in 1 ml per 5 x 10^6 cells of cold lysis buffer {10mM 4-(2-hydroxyethyl)-1-piperazineethane-sulfonic acid (HEPES), pH 7.6, 10 mM NaCl, 2mM EDTA, 1mM phenylmethyl-sulfonyl-fluoride (PMSF), 10 mg/ml aprotinin, 10 mg/ml leupeptin, 0.1 mM sodium orthovanadate} in a Dounce homogenizer with 10 strokes on ice. The lysate was centrifuged at 600g for 10 minutes first to clear cell debris and the supernatant further centrifuged at 100,000 g for 30 min at 4°C. The membrane pellet was suspended in 1.5 ml HNG buffer (50 mM HEPES, pH 7.6, 125 mM NaCl, 10% glycerol). The membrane extract was divided into aliquots, immediately frozen in liquid nitrogen and stored at -70°C.
Compounds to be evaluated were made into 10 mg/ml stock solutions in 100% dimethylsulfoxide (DMSO). Prior to experiment, stock solutions were diluted to 500 mM with buffer (30 mM Hepes pH 7.4) and then serially diluted to the desired concentration.
An aliquot of the A431 membrane extract (10 mg/ml) was diluted in 30 mM HEPES (pH 7.4) to give a protein concentration of 50 ug/ml. […] To this was added the ^33p-ATP (10 mCi/ml) diluted 1:10 in assay buffer along with the substrate peptide at a concentration of 0.5 mM (control reactions get no test compound) and the reaction was allowed to proceed for 30 min at 30°C. The reaction was stopped with 10% TCA and left on ice for at least 10 min after which tubes were microcentrifuged at full speed for 15 min. The a portion of the supernatants were spotted on P81 phosphocellulose discs and washed twice in 1% acetic acid then water for 5 min each followed by scintillation counting. […] The % inhibition of the test compound was determined for at least three different concentrations and the IC50 value was evaluated from the dose response curve. […] CPM(control) is in units of counts per minute and was a number expressing the amount of radiolabeled ATP (g-^33P) incorporated into the RR-SRC peptide substrate by the enzyme after 30 minutes at 30°C in the absence of test compound as measured by liquid scintillation counting. The CPM values were corrected for the background counts produced by ATP in the absence of the enzymatic reaction. The IC50 values reported in TABLE 1 are averages of the number of tests conducted.

B7474 = experiment: Inhibition of cancer cell growth as measured by cell number, B7474; format: cell-based; settings: Homo sapiens, read-out: IC50 B7474
MCF7 = experiment: Inhibition of cancer cell growth as measured by cell number, MCF7; format: cell-based, human; settings: Homo sapiens, MCF7, 48 h, Table 5;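 further: MCF7 was included as a line with little or no EGFR or HER2/neu expression, in contrast to the receptor-overexpressing lines of the panel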
Excerpt: as §1

HCT15 = experiment: Inhibition of cancer cell growth as measured by cell number, HCT15; format: cell-based; settings: Homo sapiens, read-out: IC50 HCT15
CCRF-CFM = experiment: Inhibition of cancer cell growth as measured by cell number, CCRF-CFM; format: cell-based; settings: Homo sapiens, read-out: IC50 CCRF-CFM
LS174T = experiment: Inhibition of cancer cell growth as measured by cell number, LS174T; format: cell-based; settings: Homo sapiens
SW620 = experiment: Inhibition of cancer cell growth as measured by cell number, SW620; format: cell-based, human; settings: Homo sapiens, SW-620, 48 h, Table 4;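 further: SW620 was included as a cell line with little or no EGFR or HER2/neu expression, in contrast to receptor-overexpressing lines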
Excerpt: as §1

MIP = experiment: Inhibition of cancer cell growth as measured by cell number, MIP; format: cell-based; settings: Homo sapiens; cell number, Sulforhodamine B, 48 hours exposure; Table 4; read-out: IC50 MIP
NEC = experiment: Inhibition of cancer cell growth as measured by cell number, NEC; format: cell-based; settings: Homo sapiens, read-out: IC50 NEC
HTB161 = experiment: Inhibition of cancer cell growth as measured by cell number, HTB161; format: cell-based; settings: Homo sapiens, read-out: IC50 HTB161
[5] = cell number, Sulforhodamine B, 48 hours exposure, Table 4
[6] = cell number, Sulforhodamine B, 48 hours exposure, Table 6

epidermal growth factor receptor kinase, sequence (P00533 25-1210): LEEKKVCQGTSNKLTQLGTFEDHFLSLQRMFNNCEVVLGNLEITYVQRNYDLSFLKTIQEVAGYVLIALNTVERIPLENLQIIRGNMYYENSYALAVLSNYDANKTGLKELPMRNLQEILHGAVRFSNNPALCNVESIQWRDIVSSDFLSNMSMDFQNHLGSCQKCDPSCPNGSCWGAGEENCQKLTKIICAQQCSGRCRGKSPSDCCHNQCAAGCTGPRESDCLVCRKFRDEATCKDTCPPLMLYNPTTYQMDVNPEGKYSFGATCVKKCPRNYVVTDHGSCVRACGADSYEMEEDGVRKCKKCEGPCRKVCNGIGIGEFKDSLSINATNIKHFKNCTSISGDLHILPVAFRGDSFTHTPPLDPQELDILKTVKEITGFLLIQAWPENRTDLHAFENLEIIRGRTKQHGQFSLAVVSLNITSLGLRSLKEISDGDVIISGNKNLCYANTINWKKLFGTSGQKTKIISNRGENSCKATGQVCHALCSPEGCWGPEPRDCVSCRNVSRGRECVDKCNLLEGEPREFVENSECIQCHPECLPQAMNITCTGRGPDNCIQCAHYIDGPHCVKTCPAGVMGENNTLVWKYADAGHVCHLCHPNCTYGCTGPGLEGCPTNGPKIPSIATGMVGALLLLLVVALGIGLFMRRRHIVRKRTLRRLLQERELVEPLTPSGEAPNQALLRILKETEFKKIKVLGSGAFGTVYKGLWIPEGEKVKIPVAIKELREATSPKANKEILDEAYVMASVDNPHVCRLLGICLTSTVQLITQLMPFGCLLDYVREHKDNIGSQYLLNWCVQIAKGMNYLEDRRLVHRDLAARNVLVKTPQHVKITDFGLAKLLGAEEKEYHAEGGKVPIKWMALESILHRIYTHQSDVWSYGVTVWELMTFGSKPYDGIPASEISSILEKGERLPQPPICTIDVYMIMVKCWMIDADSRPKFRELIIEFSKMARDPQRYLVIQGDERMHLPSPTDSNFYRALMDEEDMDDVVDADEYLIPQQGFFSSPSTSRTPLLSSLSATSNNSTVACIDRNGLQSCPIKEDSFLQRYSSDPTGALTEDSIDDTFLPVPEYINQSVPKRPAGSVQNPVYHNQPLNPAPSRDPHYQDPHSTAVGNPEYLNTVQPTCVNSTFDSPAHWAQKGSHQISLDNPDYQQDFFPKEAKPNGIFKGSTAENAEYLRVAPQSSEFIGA

CC#CC(=O)Nc1cc2c(Nc3cccc(Br)c3)c(C#N)cnc2cc1OC [Example 8, N-[4-[(3-Bromophenyl)amino]-3-cyano-7-methoxy-6-guinolinyl]-2-butynamide]
IC50 (T47D; 48 h, read-out: IC50 T47D): 39.5 µg/mL (≈ 90.7 µM)
IC50 (COLO205; COLO 205, 48 h): 2.49 µg/mL (≈ 5.72 µM)
IC50 (A549; A549, 48 h): 7.28 µg/mL (≈ 16.7 µM)
IC50 (PC3; PC-3, 48 h): 53.4 µg/mL (≈ 123 µM)
IC50 (SKBR3; SK-BR-3, 48 h, read-out: IC50 SKBR3, cell number, Sulforhodamine B, 48 hours exposure): 38.3 µg/mL (≈ 87.9 µM)
IC50 (A27805; 48 h): 0.912 µg/mL (≈ 2.09 µM)
IC50 (LOX; read-out: IC50 LOX, cell number, Sulforhodamine B, 48 hours exposure): 0.647 µg/mL (≈ 1.49 µM)
IC50 (NHEK): 0.2 µM
IC50 (LX1; LX-1, 48 h): 0.932 µg/mL (≈ 2.14 µM)
IC50 (LNCAP; 48 h, read-out: IC50 LNCAP): 59.4 µg/mL (≈ 137 µM)
IC50 (CX1; CX-1, 48 h): 7.55 µg/mL (≈ 17.3 µM)
IC50 (A431 [1]; read-out: IC50 A431, cell number, Sulforhodamine B, 48 hours exposure): 9.59 µg/mL (≈ 22 µM)
IC50 (A2780DDP; 48 h): 6.79 µg/mL (≈ 15.6 µM)
IC50 [2]: > 100 µM
IC50 (SW948; SW948, 48 h): 86.9 µg/mL (≈ 200 µM)
IC50 (CACO2; Caco-2, 48 h): 2.33 µg/mL (≈ 5.35 µM)
IC50 (CCL228; 48 h): 8.67 µg/mL (≈ 19.9 µM)
IC50 (A431 [3]; A-431, read-out: IC50 A431): 40 µM
IC50 (HL60; HL-60, 48 h): 18.9 µg/mL (≈ 43.5 µM)
IC50 (DU145; DU-145, 48 h): 6.47 µg/mL (≈ 14.9 µM)
IC50 [4]: 0.15 µM
IC50 (B7474; 48 h): 55.5 µg/mL (≈ 127 µM)
IC50 (MCF7; read-out: IC50 MCF7, cell number, Sulforhodamine B, 48 hours exposure): 53.2 µg/mL (≈ 122 µM)
IC50 (HCT15; HCT-15, 48 h): 10.9 µg/mL (≈ 25.1 µM)
IC50 (CCRF-CFM; 48 h): 0.823 µg/mL (≈ 1.89 µM)
IC50 (LS174T; 48 h, read-out: IC50 LS174T): 2.03 µg/mL (≈ 4.66 µM)
IC50 (SW620; read-out: IC50 SW620, cell number, Sulforhodamine B, 48 hours exposure): 2.5 µg/mL (≈ 5.75 µM)
IC50 (MIP): 0.354 µg/mL (≈ 0.813 µM)
IC50 (NEC; 48 h): 9.3 µg/mL (≈ 21.4 µM)
IC50 (HTB161; 48 h): 98.8 µg/mL (≈ 227 µM)

CCCC(=O)Nc1ccc2ncc(C#N)c(Nc3cccc(Br)c3)c2c1 [Example 17, N-[4-[(3-Bromophenyl)amino]-3-cyano-6-quinolinyl] butanamide]
IC50 (T47D; cell number, Sulforhodamine B, 48 hours exposure, Table 6, read-out: IC50 T47D): > 100 µg/mL
IC50 (COLO205; COLO 205, cell number, Sulforhodamine B, 48 hours exposure, Table 4): > 100 µg/mL
IC50 (A549; A549, cell number, Sulforhodamine B, 48 hours exposure, Table 6): > 100 µg/mL
IC50 (PC3; PC-3, cell number, Sulforhodamine B, 48 hours exposure, Table 7): > 100 µg/mL
IC50 (SKBR3; SK-BR-3, cell number, Sulforhodamine B, 48 hours exposure, read-out: IC50 SKBR3): 79.7 µg/mL (≈ 195 µM)
IC50 (A27805; [5]): 9.8 µg/mL (≈ 23.9 µM)
IC50 (LOX; cell number, Sulforhodamine B, 48 hours exposure, read-out: IC50 LOX): 74.2 µg/mL (≈ 181 µM)
IC50 (NHEK; [3H]-thymidine incorporation): 9 µM
IC50 (LX1; LX-1, cell number, Sulforhodamine B, 48 hours exposure, Table 6): > 100 µg/mL
IC50 (LNCAP; cell number, Sulforhodamine B, 48 hours exposure, Table 7, read-out: IC50 LNCAP): 90 µg/mL (≈ 220 µM)
IC50 (CX1; CX-1, cell number, Sulforhodamine B, 48 hours exposure, Table 4): 81.9 µg/mL (≈ 200 µM)
IC50 (A431 [1]; cell number, Sulforhodamine B, 48 hours exposure, read-out: IC50 A431): 38.1 µg/mL (≈ 93 µM)
IC50 (A2780DDP; [5]): 60.4 µg/mL (≈ 147 µM)
IC50 [2]: > 100 µM
IC50 (SW948; SW948, cell number, Sulforhodamine B, 48 hours exposure, Table 5): > 100 µg/mL
IC50 (CACO2; Caco-2, cell number, Sulforhodamine B, 48 hours exposure, Table 5): 5.63 µg/mL (≈ 13.8 µM)
IC50 (CCL228; cell number, Sulforhodamine B, 48 hours exposure, Table 5): > 100 µg/mL
IC50 (A431 [3]; A-431, [3H]-thymidine incorporation, A431, read-out: IC50 A431): 25 µM
IC50 (HL60; HL-60, cell number, Sulforhodamine B, 48 hours exposure, Table 7): > 100 µg/mL
IC50 (DU145; DU-145, cell number, Sulforhodamine B, 48 hours exposure, Table 7): 7.81 µg/mL (≈ 19.1 µM)
IC50 [4]: 9 µM
IC50 (B7474; [6]): 95.7 µg/mL (≈ 234 µM)
IC50 (MCF7; cell number, Sulforhodamine B, 48 hours exposure, read-out: IC50 MCF7): 68.2 µg/mL (≈ 167 µM)
IC50 (HCT15; HCT-15, cell number, Sulforhodamine B, 48 hours exposure, Table 5): 98.9 µg/mL (≈ 242 µM)
IC50 (CCRF-CFM; cell number, Sulforhodamine B, 48 hours exposure, Table 7): > 100 µg/mL
IC50 (LS174T; cell number, Sulforhodamine B, 48 hours exposure, Table 5, read-out: IC50 LS174T): 87 µg/mL (≈ 213 µM)
IC50 (SW620; cell number, Sulforhodamine B, 48 hours exposure, read-out: IC50 SW620): > 100 µg/mL
IC50 (MIP): 100 µg/mL (≈ 244 µM)
IC50 (NEC; [6]): > 100 µg/mL
IC50 (HTB161; [5]): 7.89 µg/mL (≈ 19.3 µM)
